Measurements: ChEMBL document CHEMBL1142376, “Novel CADD-based peptidyl vinyl ester derivatives as potential proteasome inhibitors” (Bioorg Med Chem Lett, 2008)

tested on: KB; experiment: Antiproliferative activity against human KB cells at 10 umole; format: functional

Structure (SMILES) | Activity [%]
CCOC(=O)/C=C/[C@H](Cc1ccc(O)cc1)NC(=O)[C@H](CO)NC(=O)[C@@H](NC(=O)OC(C)(C)C)C(C)C | 7.44
CC(C)(C)OC(=O)N[C@@H](CO)C(=O)N[C@H](/C=C/C(=O)O)Cc1ccc(O)cc1 | -15.49
CC(C)(C)OC(=O)N[C@@H](Cc1ccccc1)C(=O)N[C@@H](CO)C(=O)N[C@H](/C=C/C(=O)O)Cc1ccc(O)cc1 | 7.44
CCOC(=O)/C=C/[C@H](Cc1ccc(O)cc1)NC(=O)[C@@H](NC(=O)[C@@H](NC(=O)OC(C)(C)C)[C@@H](C)CC)[C@@H](C)O | 3.76
CCOC(=O)/C=C/[C@H](Cc1ccc(O)cc1)NC(=O)[C@H](CC(C)C)NC(=O)OC(C)(C)C | 1.72
CC(C)(C)OC(=O)N[C@@H](Cc1ccccc1)C(=O)N[C@@H](CO)C(=O)N[C@H](/C=C/C(=O)O)C[C@@H]1CCNC1=O | -15.6
CCOC(=O)/C=C/[C@H](C[C@@H]1CCNC1=O)NC(=O)[C@H](CC(C)C)NC(=O)[C@H](CO)NC(=O)[C@@H](NC(=O)OC(C)(C)C)C(C)C | 9.15

tested on: not listed separately; experiment: Inhibition of chymotrypsin-like activity of 20S proteasome

IC50 [µmol] | Structure (SMILES)
> 100 | CCOC(=O)/C=C/[C@H](Cc1ccc(O)cc1)NC(=O)[C@H](CO)NC(=O)[C@@H](NC(=O)OC(C)(C)C)C(C)C
> 100 | CC(C)(C)OC(=O)N[C@@H](CO)C(=O)N[C@H](/C=C/C(=O)O)Cc1ccc(O)cc1
> 100 | CC(C)(C)OC(=O)N[C@@H](Cc1ccccc1)C(=O)N[C@@H](CO)C(=O)N[C@H](/C=C/C(=O)O)Cc1ccc(O)cc1
> 100 | CCOC(=O)/C=C/[C@H](Cc1ccc(O)cc1)NC(=O)[C@@H](NC(=O)[C@@H](NC(=O)OC(C)(C)C)[C@@H](C)CC)[C@@H](C)O
> 100 | CCOC(=O)/C=C/[C@H](Cc1ccc(O)cc1)NC(=O)[C@H](CC(C)C)NC(=O)OC(C)(C)C
> 100 | CC(C)(C)OC(=O)N[C@@H](Cc1ccccc1)C(=O)N[C@@H](CO)C(=O)N[C@H](/C=C/C(=O)O)C[C@@H]1CCNC1=O
> 100 | CCOC(=O)/C=C/[C@H](C[C@@H]1CCNC1=O)NC(=O)[C@H](CC(C)C)NC(=O)[C@H](CO)NC(=O)[C@@H](NC(=O)OC(C)(C)C)C(C)C

tested on: Bel-7402; experiment: Antiproliferative activity against human Bel7402 cells at 10 umole; format: functional

Structure (SMILES) | Activity [%]
CCOC(=O)/C=C/[C@H](Cc1ccc(O)cc1)NC(=O)[C@H](CO)NC(=O)[C@@H](NC(=O)OC(C)(C)C)C(C)C | 3.39
CC(C)(C)OC(=O)N[C@@H](CO)C(=O)N[C@H](/C=C/C(=O)O)Cc1ccc(O)cc1 | -5.91
CC(C)(C)OC(=O)N[C@@H](Cc1ccccc1)C(=O)N[C@@H](CO)C(=O)N[C@H](/C=C/C(=O)O)Cc1ccc(O)cc1 | 3.39
CCOC(=O)/C=C/[C@H](Cc1ccc(O)cc1)NC(=O)[C@@H](NC(=O)[C@@H](NC(=O)OC(C)(C)C)[C@@H](C)CC)[C@@H](C)O | 3.1
CCOC(=O)/C=C/[C@H](Cc1ccc(O)cc1)NC(=O)[C@H](CC(C)C)NC(=O)OC(C)(C)C | -10.27
CC(C)(C)OC(=O)N[C@@H](Cc1ccccc1)C(=O)N[C@@H](CO)C(=O)N[C@H](/C=C/C(=O)O)C[C@@H]1CCNC1=O | 1.66
CCOC(=O)/C=C/[C@H](C[C@@H]1CCNC1=O)NC(=O)[C@H](CC(C)C)NC(=O)[C@H](CO)NC(=O)[C@@H](NC(=O)OC(C)(C)C)C(C)C | -3.55

tested on: not listed separately; experiment: Inhibition of post acidic-like activity of 20S proteasome

IC50 [µmol] | Structure (SMILES)
> 100 | CCOC(=O)/C=C/[C@H](Cc1ccc(O)cc1)NC(=O)[C@H](CO)NC(=O)[C@@H](NC(=O)OC(C)(C)C)C(C)C
> 100 | CC(C)(C)OC(=O)N[C@@H](CO)C(=O)N[C@H](/C=C/C(=O)O)Cc1ccc(O)cc1
> 100 | CC(C)(C)OC(=O)N[C@@H](Cc1ccccc1)C(=O)N[C@@H](CO)C(=O)N[C@H](/C=C/C(=O)O)Cc1ccc(O)cc1
> 100 | CCOC(=O)/C=C/[C@H](Cc1ccc(O)cc1)NC(=O)[C@@H](NC(=O)[C@@H](NC(=O)OC(C)(C)C)[C@@H](C)CC)[C@@H](C)O
> 100 | CCOC(=O)/C=C/[C@H](Cc1ccc(O)cc1)NC(=O)[C@H](CC(C)C)NC(=O)OC(C)(C)C
> 100 | CC(C)(C)OC(=O)N[C@@H](Cc1ccccc1)C(=O)N[C@@H](CO)C(=O)N[C@H](/C=C/C(=O)O)C[C@@H]1CCNC1=O
> 100 | CCOC(=O)/C=C/[C@H](C[C@@H]1CCNC1=O)NC(=O)[C@H](CC(C)C)NC(=O)[C@H](CO)NC(=O)[C@@H](NC(=O)OC(C)(C)C)C(C)C

tested on: not listed separately; experiment: Inhibition of trypsin-like activity of 20S proteasome

IC50 [µmol] | Structure (SMILES)
> 100 | CCOC(=O)/C=C/[C@H](Cc1ccc(O)cc1)NC(=O)[C@H](CO)NC(=O)[C@@H](NC(=O)OC(C)(C)C)C(C)C
> 100 | CC(C)(C)OC(=O)N[C@@H](CO)C(=O)N[C@H](/C=C/C(=O)O)Cc1ccc(O)cc1
> 100 | CC(C)(C)OC(=O)N[C@@H](Cc1ccccc1)C(=O)N[C@@H](CO)C(=O)N[C@H](/C=C/C(=O)O)Cc1ccc(O)cc1
> 100 | CCOC(=O)/C=C/[C@H](Cc1ccc(O)cc1)NC(=O)[C@@H](NC(=O)[C@@H](NC(=O)OC(C)(C)C)[C@@H](C)CC)[C@@H](C)O
> 100 | CCOC(=O)/C=C/[C@H](Cc1ccc(O)cc1)NC(=O)[C@H](CC(C)C)NC(=O)OC(C)(C)C
> 100 | CC(C)(C)OC(=O)N[C@@H](Cc1ccccc1)C(=O)N[C@@H](CO)C(=O)N[C@H](/C=C/C(=O)O)C[C@@H]1CCNC1=O
> 100 | CCOC(=O)/C=C/[C@H](C[C@@H]1CCNC1=O)NC(=O)[C@H](CC(C)C)NC(=O)[C@H](CO)NC(=O)[C@@H](NC(=O)OC(C)(C)C)C(C)C

tested on: BGC-823; experiment: Antiproliferative activity against human BGC823 cells at 10 umole; format: functional

Structure (SMILES) | Activity [%]
CCOC(=O)/C=C/[C@H](Cc1ccc(O)cc1)NC(=O)[C@H](CO)NC(=O)[C@@H](NC(=O)OC(C)(C)C)C(C)C | 22.59
CC(C)(C)OC(=O)N[C@@H](CO)C(=O)N[C@H](/C=C/C(=O)O)Cc1ccc(O)cc1 | 22.56
CC(C)(C)OC(=O)N[C@@H](Cc1ccccc1)C(=O)N[C@@H](CO)C(=O)N[C@H](/C=C/C(=O)O)Cc1ccc(O)cc1 | 10.28
CCOC(=O)/C=C/[C@H](Cc1ccc(O)cc1)NC(=O)[C@@H](NC(=O)[C@@H](NC(=O)OC(C)(C)C)[C@@H](C)CC)[C@@H](C)O | 14.69
CCOC(=O)/C=C/[C@H](Cc1ccc(O)cc1)NC(=O)[C@H](CC(C)C)NC(=O)OC(C)(C)C | 17.01
CC(C)(C)OC(=O)N[C@@H](Cc1ccccc1)C(=O)N[C@@H](CO)C(=O)N[C@H](/C=C/C(=O)O)C[C@@H]1CCNC1=O | 16.9
CCOC(=O)/C=C/[C@H](C[C@@H]1CCNC1=O)NC(=O)[C@H](CC(C)C)NC(=O)[C@H](CO)NC(=O)[C@@H](NC(=O)OC(C)(C)C)C(C)C | 20.55

tested on: HL-60; experiment: Antiproliferative activity against human HL60 cells at 10 umole; format: functional

Structure (SMILES) | Activity [%]
CCOC(=O)/C=C/[C@H](Cc1ccc(O)cc1)NC(=O)[C@H](CO)NC(=O)[C@@H](NC(=O)OC(C)(C)C)C(C)C | 26.73
CC(C)(C)OC(=O)N[C@@H](CO)C(=O)N[C@H](/C=C/C(=O)O)Cc1ccc(O)cc1 | 19.26
CC(C)(C)OC(=O)N[C@@H](Cc1ccccc1)C(=O)N[C@@H](CO)C(=O)N[C@H](/C=C/C(=O)O)Cc1ccc(O)cc1 | 13.37
CCOC(=O)/C=C/[C@H](Cc1ccc(O)cc1)NC(=O)[C@@H](NC(=O)[C@@H](NC(=O)OC(C)(C)C)[C@@H](C)CC)[C@@H](C)O | 26.5
CCOC(=O)/C=C/[C@H](Cc1ccc(O)cc1)NC(=O)[C@H](CC(C)C)NC(=O)OC(C)(C)C | 5.87
CC(C)(C)OC(=O)N[C@@H](Cc1ccccc1)C(=O)N[C@@H](CO)C(=O)N[C@H](/C=C/C(=O)O)C[C@@H]1CCNC1=O | 31.04
CCOC(=O)/C=C/[C@H](C[C@@H]1CCNC1=O)NC(=O)[C@H](CC(C)C)NC(=O)[C@H](CO)NC(=O)[C@@H](NC(=O)OC(C)(C)C)C(C)C | -47.14
